{"source": "patent US20080311657A1", "about": "“Killing Human Lymphoma and Leukemia Cancer Cells and Tcr-Activated Normal Human Cells By Dopamine D1r Agonists” (priority 2005, published 2008)", "assay_in_all_cases": "Number of living cells counted by flow cytometry (FACSort) after D1R agonist", "assay_type_in_all_cases": "cell-based", "key": {"[1]": {"tested_on": "Human cutaneous Sezary T-lymphoma cells (HuT-78)", "conditions": "10^−3M-10^−6M, 3 days", "description": "(§1) Human cutaneous Sezary T-lymphoma cells (HUT-78) were seeded in 96 well plates (0.5 ml per well of 0.5 million cells/ml) and A 77636 hydrochloride was added and diluted 1:00 into the wells at starting concentrations of 10^−1M-10^−4M, so that the final concentration range tested was 10^−3M-10^−6M. Afterwards, the microtiter plates were placed in an incubator (37° C., humidified incubator, 5% CO2) for 3 days. Then, the number of living cells was evaluated by flow cytometry (the cells were counted by FACsort for a fixed time length of 1 min, in which 100 microliter of each sample was tested).\nas §1, with “68930” for “77636”\nas §1, with “SKF 38393 hydrobromide” for “A 77636 hydrochloride”\nCell viability was tested afterwards. […]\nCell survival/death was evaluated 3 days later by counting the number of living cells, using flow cytometry."}, "[2]": {"tested_on": "TCR-activated normal human T-cells", "conditions": "10^−5 M, 72 hr", "description": "FIGS. 31A and B are graphs showing that A 77636 hydrochloride kills much more TCR-activated (FIG. 31B) than resting normal (FIG. 31A) human T-cells. […] The cells were then transferred to the incubator for 72 hr incubation. At the end of the 72 hr incubation, the number of living cells in each well was evaluated by flow cytometry (the cells were counted by FACsort for a fixed time length of 1 min, in which 100 microliter of each sample was tested).\nNon-tissue culture treated 24-well plates (Falcon, Franklin Lakes, N.J.) were coated overnight at 4° C. with anti-CD3 and anti-CD28 monoclonal antibodies (mabs) (BD Pharmingen, San Jose, Calif.); ([…] in PBS). The wells were then washed with PBS, blocked for 1 hour at 37° C. (PBS/1% BSA), and washed again. The freshly purified normal human T-cells were resuspended in their respective fresh media and seeded in the anti-CD3/CD28 coated wells (1×10^6 per well), and the plates were incubated for 72 hours (37° C., humidified incubator, 5% CO2). Then, the cells and their media were collected from each well, transferred into 50 ml tubes, centrifuged (1200 rpm, 10 minutes) and both the TCR-activated cells and their culture media were collected and transferred into clean separate tubes.\n(§2) Cell viability was tested afterwards."}, "[3]": {"tested_on": "Human Burkitt's B-lymphoma cells (Daudi)", "conditions": "10^−3M-10^−6M, 3 days", "description": "as §1, with “Burkitt's B-lymphoma” for “cutaneous Sezary T-lymphoma”, “(Daudi)” for “(HUT-78)”, “Afterwards, the microtiter plates were placed in an incubator (37° C., humidified incubator, 5% CO2) for 3 days.” left out\nas §1, with “Burkitt's B-lymphoma” for “cutaneous Sezary T-lymphoma”, “(Daudi)” for “(HUT-78)”, “68930” for “77636”, “Afterwards, the microtiter plates were placed in an incubator (37° C., humidified incubator, 5% CO2) for 3 days.” left out\n[…] Then, the number of living cells was evaluated by flow cytometry (the cells were counted by FACsort for a fixed time length of 1 min, in which 100 microliter of each sample was tested).\nas §2\nThe effect of dopamine itself (that can of course activate all its D1R-5 receptors) was also tested. All of these molecules were tested at a similar concentration (10^−4 M). […] The specificity and restriction of the effect to the D1R is also seen in Tables 7 and 8."}}, "data": [{"smiles": "Cl.NC[C@@H]1O[C@H](C23CC4CC(CC(C4)C2)C3)Cc2c1ccc(O)c2O", "note": "[A 77636 hydrochloride, (1R-cis)-1-(aminomethyl)-3,4-dihydro-3-tricyclo[3.3.1.13,7]dec-1-yl-[1H]-2-benzopyran-5,6-diol hydrochloride]", "values": [{"measurement": "Cell death by number of living cells (FIGS. 13-15), in words", "setting": "[1]", "value": "induces marked cell death"}, {"measurement": "% of cells killed", "setting": "[2]", "value": 46, "unit": "%"}, {"measurement": "Killing of TCR-activated relative to resting normal human T-cells", "setting": "[2]", "value": 3.8, "unit": "fold"}, {"measurement": "Cell death by number of living cells (FIGS. 16-18), in words", "setting": "[3]", "value": "induces marked cell death"}]}]}
